The record followed here is patent US8552016B2, “Anti-cancer cyclopenta(g)quinazoline compounds” (BTG International Limited, priority 2001, dated 2013).

Where two headings read alike, the source gives them in different places.

Usually IC50 stands for the midpoint of a concentration-inhibition curve.

One experiment deals with A431 cells. Put plainly: Inhibition of growth of A431 (neo-transfected, not expressing α-FR) cells. The format is cell-based, human. The conditions noted are these: for A431: fold increased IC50 in presence of folic acid: 1 μM FA. The source says:
(§1) CB300945, the (RS)-C2-CH2OH analogue of the known cyclopenta[g]-quinazoline, CB300638 was synthesised as in Example 1. In addition, the C2-NH2 was made as a comparative example. […] The human A431-FBP cell line was transfected with the α-FR and sensitivity compared with the A431 cell line. Human nasopharengeal KB cells constitutively overexpress this receptor (see Bagnoli et al. Oncogene, 19, 4754-4763, 2000).

Another experiment relates to A431-FBP cells. Kind of experiment: Inhibition of growth of A431-FBP cells (A431 transfected with the α-FR). The format is cell-based, human. The settings on record: for A431-FBP: fold increased IC50 in presence of folic acid: 1 μM FA; for activity in A431-FBP cells (in words): α-FR mediated uptake.
From the text: as §1

The next experiment has as its system KB cells. Put plainly: Inhibition of growth of KB cells (constitutively overexpress α-FR). The format is cell-based, human. The conditions noted are these: for KB: fold increased IC50 in presence of folic acid: 1 μM FA.
From the text: as §1

A further experiment addresses T1, α-FR of L1210-FBP cells (Mus musculus, UniProt P35846).
T1 construct: endogenous in cells; host or cells: mouse L1210-FBP leukaemia cells
Put plainly: Binding to the α-FR relative to folic acid, L1210-FBP cells. The conditions noted are these: >1 = binding greater than folic acid.

The mark [1] stands for this setting: Homo sapiens, A-431, 1 nM LV, read-out: Inhibition of cell growth, IC50, A431.
Setting [2] is: Homo sapiens, A-431, read-out: Inhibition of cell growth, IC50, A431 + 1 μM FA, 1 nM LV, + 1 μM folic acid.
The mark [3] stands for this setting: Homo sapiens, A-431, read-out: Inhibition of cell growth, IC50, A431 + 1 μM FA, 20 nM LV, + 1 μM folic acid.
Setting [4] is: Homo sapiens, A-431, 1 nM LV, read-out: Inhibition of cell growth, IC50, A431-FBP.
The mark [5] stands for this setting: Homo sapiens, A-431, read-out: Inhibition of cell growth, IC50, A431-FBP + 1 μM FA, 1 nM LV, + 1 μM folic acid.
Where [6] appears, read: Homo sapiens, A-431, read-out: Inhibition of cell growth, IC50, A431-FBP + 1 μM FA, 20 nM LV, + 1 μM folic acid.
The mark [7] stands for this setting: Homo sapiens, KB, read-out: Inhibition of cell growth, IC50, KB + 1 μM FA, 1 nM LV, + 1 μM folic acid.
[8] abbreviates: Homo sapiens, KB, read-out: Inhibition of cell growth, IC50, KB + 1 μM FA, 20 nM LV, + 1 μM folic acid.
Where [9] appears, read: Homo sapiens, KB, 1 nM LV, read-out: Inhibition of cell growth, IC50, KB.
[10] abbreviates: 20 nM LV, read-out: Inhibition of cell growth, IC50, A431.

T1 sequence (P35846 25-232): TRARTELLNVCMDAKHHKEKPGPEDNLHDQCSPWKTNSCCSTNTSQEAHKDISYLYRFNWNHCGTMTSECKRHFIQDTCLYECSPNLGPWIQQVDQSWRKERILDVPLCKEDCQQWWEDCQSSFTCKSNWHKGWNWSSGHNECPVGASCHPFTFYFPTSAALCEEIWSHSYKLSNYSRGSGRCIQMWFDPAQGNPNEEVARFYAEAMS

Regarding `C#CCN(c1ccc(C(=O)N[C@@H](CCC(=O)N[C@H](CCC(=O)O)C(=O)O)C(=O)O)cc1)C1CCc2cc3nc(CO)[nH]c(=O)c3cc21` (mixture of isomers) [CB300945 (RS), N—{N-{4-[N-((6RS)-2-Hydroxymethyl-4-oxo-3,4,7,8-tetrahydro-6H-cyclopenta[g]quinazolin-6-yl)-N-(prop-2-ynyl)amino]benzoyl}-L-γ-glutamyl}-D-glutamic acid], the “A431: fold increased IC50 in presence of folic acid” value (shortened to “A431: fold increased IC50”) in the experiment with A431 cells (20 nM LV) was “(1) fold”. In addition, the half-maximal inhibitory concentration (IC50) in the experiment with A431 cells (setting [1]) was 7.2 ± 3.6 µM; in the experiment on A431 cells (setting [2]), 7.3 ± 3.3 µM; in the experiment with A431 cells (setting [3]) it was 9.3 ± 3.5 µM; with A431-FBP cells (setting [4]), 0.0019 ± 0.0006 µM; in the experiment on A431-FBP cells (setting [5]), 5.7 ± 1.3 µM; in the experiment with A431-FBP cells (setting [6]), 6.5 ± 0.86 µM. Moreover, the IC50 turned out to be 7.6 ± 1.3 µM in the experiment with KB cells (setting [7]) and 7.3 ± 2 µM in the experiment on KB cells (setting [8]). For the same molecule, the “A431-FBP: fold increased sensitivity compared with A431” value (“A431-FBP: fold increased sensitivity” for short) in the experiment with A431-FBP cells (1 nM LV) is recorded as “(3800) fold”; in the experiment on A431-FBP cells (20 nM LV), “(4700) fold”. Also, the “A431-FBP: fold increased IC50 in presence of folic acid” value (shortened to “A431-FBP: fold increased IC50”) with A431-FBP cells (1 nM LV) and with A431-FBP cells (20 nM LV) was “(3100) fold” in each case. For the same molecule, the “activity in A431-FBP cells (in words)” value in the experiment on A431-FBP cells is listed as “highly potent”. Moreover, the “KB: fold increased IC50 in presence of folic acid” value (“KB: fold increased IC50” for short) with KB cells (1 nM LV) is on record as “(2200) fold”; in the experiment with KB cells (20 nM LV), “(2100) fold”. The “relative binding affinity (inverse relative affinity) for the α-FR” value (“relative binding affinity” for short) at α-FR of L1210-FBP cells is 0.71.

Take `C#CCN(c1ccc(C(=O)N[C@@H](CCC(=O)N(C)[C@@H](CCC(=O)O)C(=O)O)C(=O)O)cc1)C1CCc2cc3nc(CO)[nH]c(=O)c3cc21` (mixture of isomers) [CB300960 (R, S), N—{N-{4-[N-((6RS)-2-hydroxymethyl-4-oxo-3,4,7,8-tetrahydro-6H-cyclopenta[g]quinazolin-6-yl)-N-(prop-2-ynyl)amino]benzoyl}-L-γ-glutamyl}-N-methyl-L-glutamic acid]: the “A431: fold increased IC50” value in the experiment with A431 cells (20 nM LV) was “(1) fold”. Further, in the experiment with A431-FBP cells (20 nM LV), the “A431-FBP: fold increased IC50” value is “(180) fold”. Besides, the IC50 in the experiment on A431-FBP cells (setting [6]) is 5.1 µM.

For `C#CCN(c1ccc(C(=O)N[C@@H](CCC(=O)N[C@H](CCC(=O)O)C(=O)O)C(=O)O)cc1)C1CCc2cc3nc(C)[nH]c(=O)c3cc21` (mixture of isomers) [CB300638 (RS)], the “A431: fold increased IC50” value with A431 cells (1 nM LV) and with A431 cells (20 nM LV) was “(1) fold” in each case. In addition, the concentration for half-maximal inhibition (IC50) in the experiment with A431 cells (setting [1]) turned out to be 1.2 ± 0.21 µM; with A431 cells (setting [2]), 0.98 ± 0.23 µM; in the experiment on A431-FBP cells (setting [4]), 0.0072 ± 0.001 µM; in the experiment with A431-FBP cells (setting [5]), 0.61 ± 0.012 µM; with A431-FBP cells (setting [6]), 0.87 ± 0.29 µM; in the experiment on KB cells (setting [9]), 0.0079 ± 0.001 µM. For the same molecule, the values for the IC50 in the experiment with KB cells (setting [7]) and with KB cells (setting [8]) were 0.61 ± 0.012 µM and 0.76 ± 0.17 µM, respectively. The results for the “A431-FBP: fold increased sensitivity” value in the experiment on A431-FBP cells (1 nM LV) and with A431-FBP cells (20 nM LV) were “(170) fold” and “(220) fold”, respectively. In addition, the figures for the “A431-FBP: fold increased IC50” value with A431-FBP cells (1 nM LV) and in the experiment on A431-FBP cells (20 nM LV) were “(85) fold” and “(130) fold”, respectively. Further, the “activity in A431-FBP cells (in words)” value in the experiment with A431-FBP cells is given as “highly sensitive”. For the same molecule, the “KB: fold increased IC50” value with KB cells (1 nM LV) was “(76) fold”; in the experiment on KB cells (20 nM LV) it was “(140) fold”. Further, the “relative binding affinity” value at α-FR of L1210-FBP cells is listed as 0.57.

In the case of `C#CCN(c1ccc(C(=O)N[C@@H](CCC(=O)N[C@H](CCC(=O)O)C(=O)O)C(=O)O)cc1)C1CCc2cc3nc(N)[nH]c(=O)c3cc21` (mixture of isomers) [CB300944 (RS)], the “A431: fold increased IC50” value in the experiment on A431 cells (1 nM LV) and with A431 cells (20 nM LV) was “(1) fold” throughout. Besides, the 50% inhibitory concentration (IC50) in the experiment with A431 cells (setting [10]) is 27 µM; in the experiment on A431 cells (setting [1]), 24 ± 3.6 µM; with A431 cells (Homo sapiens, A-431, 20 nM LV, read-out: Inhibition of cell growth, IC50, A431), 23 µM; with A431 cells (setting [2]), 24 ± 2.9 µM; with A431 cells (setting [3]) it was 22 µM; with A431-FBP cells (setting [4]), 9.1 ± 0.83 µM. For the same molecule, the half-maximal inhibitory concentration (IC50) in the experiment with A431-FBP cells (Homo sapiens, A-431, 20 nM LV, read-out: Inhibition of cell growth, IC50, A431-FBP) was 8.3 ± 0.64 µM; in the experiment with A431-FBP cells (setting [5]), 12 ± 2.1 µM; in the experiment on A431-FBP cells (setting [6]), 7.1 ± 1 µM; in the experiment with KB cells (setting [9]) it was 19 µM; in the experiment on KB cells (Homo sapiens, KB, 20 nM LV, read-out: Inhibition of cell growth, IC50, KB), 19 ± 0.58 µM; in the experiment on KB cells (setting [7]), 19 ± 1.5 µM. Further, the half-inhibitory concentration (IC50) with KB cells (setting [8]) was found to be 19 ± 1.2 µM. The “A431-FBP: fold increased sensitivity” value in the experiment on A431-FBP cells (1 nM LV) and with A431-FBP cells (20 nM LV) was “(3) fold” each time. Besides, the “A431-FBP: fold increased IC50” value in the experiment on A431-FBP cells (1 nM LV) and with A431-FBP cells (20 nM LV) was “(1) fold” in each case. Moreover, the “activity in A431-FBP cells (in words)” value with A431-FBP cells is reported as “very little activity”. The “KB: fold increased IC50” value in the experiment with KB cells (1 nM LV) and in the experiment on KB cells (20 nM LV) was “(1) fold” in each case. The “relative binding affinity” value at α-FR of L1210-FBP cells came out at 0.57.

Take `C#CCN(Cc1cc2c(O)nc(C)nc2cc1C)c1ccc(C(=O)N[C@@H](CCc2nnn[nH]2)C(=O)O)c(F)c1` [ZD9331]: the “A431: fold increased IC50” value with A431 cells (1 nM LV) and in the experiment on A431 cells (20 nM LV) was “(1) fold” in each case. The half-maximal inhibitory concentration (IC50) in the experiment with A431 cells (1 nM LV, read-out: Inhibition of cell growth, IC50, A431) turned out to be 0.061 ± 0.014 µM; in the experiment on A431 cells (setting [10]), 0.082 ± 0.042 µM; in the experiment with A431 cells (read-out: Inhibition of cell growth, IC50, A431 + 1 μM FA, 1 nM LV, + 1 μM folic acid) it was 0.056 ± 0.025 µM; in the experiment with A431 cells (read-out: Inhibition of cell growth, IC50, A431 + 1 μM FA, 20 nM LV, + 1 μM folic acid), 0.067 ± 0.029 µM; with A431-FBP cells (1 nM LV, read-out: Inhibition of cell growth, IC50, A431-FBP), 0.0088 ± 0.0052 µM; in the experiment on A431-FBP cells (20 nM LV, read-out: Inhibition of cell growth, IC50, A431-FBP), 0.018 ± 0.0097 µM. The IC50 is 0.027 ± 0.0076 µM in the experiment on A431-FBP cells (read-out: Inhibition of cell growth, IC50, A431-FBP + 1 μM FA, 1 nM LV, + 1 μM folic acid); 0.034 ± 0.0087 µM in the experiment with A431-FBP cells (read-out: Inhibition of cell growth, IC50, A431-FBP + 1 μM FA, 20 nM LV, + 1 μM folic acid); 0.0021 ± 0.0013 µM in the experiment with KB cells (1 nM LV, read-out: Inhibition of cell growth, IC50, KB); 0.0036 ± 0.0021 µM in the experiment on KB cells (20 nM LV, read-out: Inhibition of cell growth, IC50, KB); 0.00641 ± 0.0035 µM in the experiment with KB cells (read-out: Inhibition of cell growth, IC50, KB + 1 μM FA, 1 nM LV, + 1 μM folic acid); 0.012 ± 0.005 µM in the experiment on KB cells (read-out: Inhibition of cell growth, IC50, KB + 1 μM FA, 20 nM LV, + 1 μM folic acid). Further, the “A431-FBP: fold increased sensitivity” value was “(7) fold” in the experiment with A431-FBP cells (1 nM LV) and “(4) fold” in the experiment with A431-FBP cells (20 nM LV). For the same molecule, the “A431-FBP: fold increased IC50” value in the experiment on A431-FBP cells (1 nM LV) was “(3) fold”; with A431-FBP cells (20 nM LV) it was “(2) fold”. Besides, the “KB: fold increased IC50” value in the experiment with KB cells (1 nM LV) and in the experiment on KB cells (20 nM LV) was “(3) fold” throughout.
